Data from US4177264A, “N-benzyl anthracyclines” (priority 1978, dated 1979).
pIC50: −log10 of the molar value. Where two headings read alike, the source gives them in different places. Each block holds one compound with its values, some of them ahead of it.

What was measured:
leukemia P388 = assay: Ip P388 leukemia in mice, survival time (NCI Protocol 1,200); type: in vivo; details: for response vs control in vivo at 37.5 mg/kg: q4d 5,9,13, 37.5 mg/kg (optimum dose); for response vs control in vivo at 8 mg/kg: q4d 5,9,13, 8 mg/kg
Source text: (§1) Sufficient samples of all but compound (VIII) have been obtained for biological screening, and recent results of tests both in vitro and in vivo are shown in Table 2 below. […] The in vitro results are surprising and appear to be highly significant in that there is an abrupt and unexpected loss of DNA-binding properties in going from N-benzyl to N,N-dibenzyl compounds. ΔTm is the most direct measure of DNA-binding but the inhibition of nucleic acid synthesis is also lost. Most of the anthracyclines bind to DNA, presumably by an intercalation mechanism and are mutagenic. In these N,N-dibenzyl compounds the anti-tumor activity in the mouse screen is retained but the DNA-binding properties are lost.
Highest Mean T/C vs P388 in
^d Ip P388 leukemia treated ip on QD1-9 and Q4D 5,9,13 schedules
according to standard NCI protocols. Assay described in R. I. Geran, N. H
Greenberg, M. M. MacDonald, A. M. Schumacker and B. J. Abbott, Cancer
Chemother. Rep., Part 3, 3, (No. 2), 9 (1972), Protocol 1,200. T/C = rati
of survival time of treated mice to that of untreated controls times 100.
Untreated controls survive about 9 days. For Dnm and Adm, % T/C values ar
means from several dozen tests, with standard deviation up to ±40. For
the Nbenzyl compounds, % T/C values are means from all the tests (1 to 3)
so far, at the optimum dose.

isolated helical DNA = assay: ΔTm of isolated helical DNA (DNA-binding); details: difference in DNA melting temperature with and without drug; ~1° weak binding if any, ≥5° significant binding
Source text: as §1
^b ΔTm values represent the difference in temperature
between that at which the DNA denatures (or melts) without the drug and
that at which denaturing occurs in the presence of the drug;

L1210 Cells [1] = assay: Inhibition of DNA synthesis in L1210 cells; type: cell-based; details: Mus musculus
Source text: (§2) ^c Assay described in G. Tong, W. W. Lee, D. R. Black and D. W. Henry

L1210 Cells [2] = assay: Inhibition of RNA synthesis in L1210 cells; type: cell-based; details: Mus musculus
Source text: as §2

[3] = Mus musculus, P388, ip, mean from 1 to 3 tests, read-out: Highest Mean T/C vs P388 in Mice
[4] = L1210 cells, DNA synthesis, read-out: Inhib of Synth, DNA, ED50
[5] = L1210 cells, RNA synthesis, read-out: Inhib of Synth, RNA, ED50
[6] = Mus musculus, P388, ip, mean from several dozen tests, SD up to ±40, read-out: Highest Mean T/C vs P388 in Mice
[7] = Mus musculus, P388, ip, qd 1-9, 6.25 mg/kg (optimum dose), mean from 1 to 3 tests, read-out: Highest Mean T/C vs P388 in Mice
[8] = Mus musculus, P388, ip, read-out: Highest Mean T/C vs P388 in Mice
[9] = L1210, read-out: Inhib of Synth, DNA, ED50
[10] = L1210, read-out: Inhib of Synth, RNA, ED50

- ΔTm (isolated helical DNA): 7.6 °C
- pIC50 (L1210 Cells [1]; [4]): 5.85
- pIC50 (L1210 Cells [2]; [5]): 6.54
Compound: COc1cccc2c1C(=O)c1c(O)c3c(c(O)c1C2=O)C[C@@](O)(C(O)CO)C[C@@H]3O[C@H]1C[C@H](NCc2ccccc2)[C@H](O)[C@H](C)O1 (stereo partly shown) [IV, N-Benzyl-13-dihydroadriamycin]
- response vs control in vivo at 37.5 mg/kg (leukemia P388; [3]): 143%
- response vs control in vivo at 1.56 mg/kg (leukemia P388; Mus musculus, P388, ip, qd 1-9, 1.56 mg/kg (optimum dose), mean from 1 to 3 tests, read-out: Highest Mean T/C vs P388 in Mice): 196%

Compound: COc1cccc2c1C(=O)c1c(O)c3c(c(O)c1C2=O)C[C@@](O)(C(C)=O)C[C@@H]3O[C@H]1C[C@H](N)[C@H](O)[C@H](C)O1 [IX, Daunomycin, reference compound]
- response vs control in vivo at 8 mg/kg (leukemia P388; [6]): 134%
- response vs control in vivo at 0.5 mg/kg (leukemia P388; Mus musculus, P388, ip, qd 1-9, 0.5 mg/kg, mean from several dozen tests, SD up to ±40, read-out: Highest Mean T/C vs P388 in Mice): 167%
- pIC50 (L1210 Cells [1]; [4]): 6.00
- pIC50 (L1210 Cells [2]; [5]): 6.52

Compound: COc1cccc2c1C(=O)c1c(O)c3c(c(O)c1C2=O)C[C@@](O)(C(C)=O)C[C@@H]3O[C@H]1C[C@H](N(Cc2ccccc2)Cc2ccccc2)[C@H](O)[C@H](C)O1 [Compound V, N,N-Dibenzyldaunomycin]
- response vs control in vivo at 37.5 mg/kg (leukemia P388; [3]): 227%
- response vs control in vivo at 25 mg/kg (leukemia P388; Mus musculus, P388, ip, qd 1-9, 25 mg/kg (optimum dose), mean from 1 to 3 tests, read-out: Highest Mean T/C vs P388 in Mice): 259%
- activity against leukemia P388 in mice (in words) (leukemia P388; ip, mice): clearly the best
- ΔTm (isolated helical DNA): 1.35 °C
- pIC50 (L1210 Cells [1]; [4]): < 4.00
- pIC50 (L1210 Cells [2]; [5]): 5.00

- ΔTm (isolated helical DNA): 11.3 °C
- pIC50 (L1210 Cells [1]; [4]): 6.19
- pIC50 (L1210 Cells [2]; [5]): 7.05
Compound: COc1cccc2c1C(=O)c1c(O)c3c(c(O)c1C2=O)C[C@@](O)(C(=O)CO)C[C@@H]3O[C@H]1C[C@H](NCc2ccccc2)[C@H](O)[C@H](C)O1 [III, N-Benzyladriamycin]
- response vs control in vivo at 18.8 mg/kg (leukemia P388; Mus musculus, P388, ip, q4d 5,9,13, 18.8 mg/kg (optimum dose), mean from 1 to 3 tests, read-out: Highest Mean T/C vs P388 in Mice): 200%
- response vs control in vivo at 6.25 mg/kg (leukemia P388; [7]): 224%

Compound: COc1cccc2c1C(=O)c1c(O)c3c(c(O)c1C2=O)C[C@@](O)(C(C)O)C[C@@H]3O[C@H]1C[C@H](N(Cc2ccccc2)Cc2ccccc2)[C@H](O)[C@H](C)O1 (stereo partly shown) [Compound VI, N,N-Dibenzyl-13-dihydrodaunomycin]
- response vs control in vivo at 50 mg/kg (leukemia P388; Mus musculus, P388, ip, q4d 5,9,13, 50 mg/kg (optimum dose), mean from 1 to 3 tests, read-out: Highest Mean T/C vs P388 in Mice): 233%
- response vs control in vivo at 40 mg/kg (leukemia P388; Mus musculus, P388, ip, qd 1-9, 40 mg/kg (optimum dose), mean from 1 to 3 tests, read-out: Highest Mean T/C vs P388 in Mice): 229%
- ΔTm (isolated helical DNA): 0.6 °C
- pIC50 (L1210 Cells [1]; L1210 cells, DNA synthesis, (susp), read-out: Inhib of Synth, DNA, ED50 (susp)): 3.66
- pIC50 (L1210 Cells [2]; [5]): 5.12

- ΔTm (isolated helical DNA): 6.25 °C
- pIC50 (L1210 Cells [1]; [4]): 5.77
- pIC50 (L1210 Cells [2]; [5]): 6.49
Compound: COc1cccc2c1C(=O)c1c(O)c3c(c(O)c1C2=O)C[C@@](O)(C(C)O)C[C@@H]3O[C@H]1C[C@H](NCc2ccccc2)[C@H](O)[C@H](C)O1 (stereo partly shown) [II, N-Benzyl-13-dihydrodaunomycin]
- response vs control in vivo at 6.25 mg/kg (leukemia P388; [7]): 226%

Compound: COc1cccc2c1C(=O)c1c(O)c3c(c(O)c1C2=O)C[C@@](O)(C(=O)CO)C[C@@H]3O[C@H]1C[C@H](N(Cc2ccccc2)Cc2ccccc2)[C@H](O)[C@H](C)O1 [Compound VII, N,N-Dibenzyladriamycin]
- response vs control in vivo at 6.25 mg/kg (leukemia P388; [8]): 175%
- ΔTm (isolated helical DNA): -1.2 °C
- pIC50 (L1210 Cells [1]; [9]): 3.96
- pIC50 (L1210 Cells [2]; [10]): 5.32

Compound: COc1cccc2c1C(=O)c1c(O)c3c(c(O)c1C2=O)C[C@@](O)(C(C)=O)C[C@@H]3O[C@H]1C[C@H](NCc2ccccc2)[C@H](O)[C@H](C)O1 [I, N-Benzyldaunomycin]
- response vs control in vivo at 6.25 mg/kg (leukemia P388; [8]): 187%
- response vs control in vivo at 18.8 mg/kg (leukemia P388; [8]): 226%
- ΔTm (isolated helical DNA): 10.2 °C
- pIC50 (L1210 Cells [1]; [9]): 5.80
- pIC50 (L1210 Cells [2]; [10]): 6.77

Compound: COc1cccc2c1C(=O)c1c(O)c3c(c(O)c1C2=O)C[C@@](O)(C(=O)CO)C[C@@H]3O[C@H]1C[C@H](N)[C@H](O)[C@H](C)O1 [X, Adriamycin, reference compound]
- response vs control in vivo at 8 mg/kg (leukemia P388; [6]): 157%
- response vs control in vivo at 1 mg/kg (leukemia P388; Mus musculus, P388, ip, qd 1-9, 1.0 mg/kg, mean from several dozen tests, SD up to ±40, read-out: Highest Mean T/C vs P388 in Mice): 193%
- ΔTm (isolated helical DNA): 13.4 °C
- pIC50 (L1210 Cells [1]; [4]): 5.82
- pIC50 (L1210 Cells [2]; [5]): 6.17
